In patent US20220330549A1, “USE OF N-BENZYLBENZAMIDE-BASED COMPOUND AS HERBICIDE” (Northwest A&F University, priority 2020, published 2022):

How the values were obtained:
Format in all cases: in vivo
[1] = system: Barnyard grass; assay: Herbicidal activity test for indoor pre-emergence soil treatment; parameters: key: level 1-9; higher = more weed remaining vs blank control; details: 150 g a.i./ha, visual inspection 21 days after treatment
Description: (§1) The herbicidal activity test for indoor pre-emergence soil treatment was performed with some of the N-benzylbenzamide-based compounds of general formula I or II with reference to the method of NY/T 1155.3-2006. Neutral sandy loam soil having an organic content of ≤2% was added to fill ⅘ of the pot, and the soil was completely moistened by infiltrating irrigation from the bottom of the pot. The seeds of the test weed were evenly spread on the soil surface, and then covered by 0.5 cm to 2.0 cm of soil depending on the seed size. Representative compounds in the examples were used to prepare emulsifiable concentrates (10%), and spray treatments to the soil were performed 24 hours after the sowing with the test agents diluted with water, at a spraying dosage of 150 g(a.i.)/ha. Then, the results were investigated by visual inspection 21 days after the treatments. The herbicidal activity of the agent was evaluated on a scale of 1-9 levels according to the symptoms and severity of damage to the test weeds.
(§2) Level 2: equivalent to 0 to 2.5% of the weed in the blank control area;
(§3) Level 3: equivalent to 2.6 to 5% of the weed in the blank control area;
(§4) Level 4: equivalent to 5.1 to 10% of the weed in the blank control area;
(§5) Level 5: equivalent to 10.1 to 15% of the weed in the blank control area;
(§6) Level 6: equivalent to 15.1 to 25% of the weed in the blank control area;
(§7) Level 7: equivalent to 25.1 to 35% of the weed in the blank control area;
(§8) Level 8: equivalent to 35.1 to 67.5% of the weed in the blank control area; and
(§9) Level 9: equivalent to 67.6 to 100% of the weed in the blank control area.

[2] = system: Piemarker; assay: as above; parameters: key: level 1-9; higher = more weed remaining vs blank control; details: 150 g a.i./ha, visual inspection 21 days after treatment
Description: as §1, §2, §3, §4, §5, §6, §7, §8, §9

[3] = system: green bristlegrass; assay: as above; parameters: key: level 1-9; higher = more weed remaining vs blank control; details: 150 g a.i./ha, visual inspection 21 days after treatment
Description: as §1, §2, §3, §4, §5, §6, §7, §8, §9

[4] = system: Amaranthus retroflexus; assay: as above; parameters: key: 1-9 levels; higher = more weed remaining vs blank control; details: 150 g a.i./ha, visual inspection 21 days after treatment
Description: as §1, §2, §3, §4, §5, §6, §7, §8, §9

[5] = system: Digitaria sanguinalis; assay: as above; parameters: key: 1-9 levels; higher = more weed remaining vs blank control; details: 150 g a.i./ha, visual inspection 21 days after treatment
Description: as §1, §2, §3, §4, §5, §6, §7, §8, §9

[6] = system: Humulus scandens; assay: as above; details: 150 g a.i./ha, visual inspection 21 days after treatment
Description: as §1, §2, §3, §4, §5, §6, §7, §8, §9

[7] = system: Amaranthus retroflexus; assay: Herbicidal activity test for indoor post-emergence spraying on stems and leaves; parameters: key: grade level by weed remaining vs blank control, e.g. 5 = 10.1-15%; details: 150 g a.i./ha, visual inspection 21 days after treatment
Description: (§10) The post-emergence herbicidal activity test was performed with some of the N-benzylbenzamide-based compounds of general formula I or II with reference to the method of NY/T 1155.4-2006. […] After the sowing, the weed was moved to a greenhouse for regular cultivation. […] Then, the results were investigated by visual inspection 21 days after the treatments. […] Level 5: equivalent to 10.1 to 15% of the weed in the blank control area; Level 6: equivalent to 15.1 to 25% of the weed in the blank control area; Level 7: equivalent to 25.1 to 35% of the weed in the blank control area; Level 8: equivalent to 35.1 to 67.5% of the weed in the blank control area; and […]

[8] = system: Barnyard grass; assay: as above; parameters: key: grade level by weed remaining vs blank control, e.g. 5 = 10.1-15%; details: 150 g a.i./ha, visual inspection 21 days after treatment
Description: as §10

[9] = system: Digitaria sanguinalis; assay: as above; parameters: key: grade level by weed remaining vs blank control, e.g. 5 = 10.1-15%; details: 150 g a.i./ha, visual inspection 21 days after treatment
Description: as §10

[10] = system: Humulus scandens; assay: as above; parameters: key: grade level by weed remaining vs blank control, e.g. 5 = 10.1-15%; details: 150 g a.i./ha, visual inspection 21 days after treatment
Description: as §10

[11] = system: Piemarker; assay: as above; parameters: key: grade level by weed remaining vs blank control, e.g. 5 = 10.1-15%; details: 150 g a.i./ha, visual inspection 21 days after treatment
Description: as §10

[12] = system: green bristlegrass; assay: as above; parameters: key: grade level by weed remaining vs blank control, e.g. 5 = 10.1-15%; details: 150 g a.i./ha, visual inspection 21 days after treatment
Description: as §10

[13] = system: Broadleaf weed; assay: Post-emergence herbicidal activity test in a paddy field; parameters: key: level scale; higher level = more weed left vs blank control; details: 150 g a.i./ha (penoxsulam control 250 g(a.i.)/h)
Description: (§11) The post-emergence herbicidal activity test was performed in a paddy field with some of the N-benzylbenzamide-based compounds of general formula I or II with reference to the method of GB/T 17980.40-2000. […] Spray treatments were performed in the stage where 4 leaves to 5 leaves were grown for the rice seedlings which was about 1 month after the sowing. Representative compounds in the examples were used to prepare emulsifiable concentrates (10%), and spray treatments were performed with the concentrates in water at a dosage of 150 g(a.i.)/ha, and repeated 4 times for each treatment, and the area was 50 m^2. 25 g/L of penoxsulam suspension was used as a control agent and applied at a dosage of 250 g(a.i.)/h. The results were investigated by a value estimating survey method 15 days and 30 days after the treatments. The relative weed population quantities were estimated by comparing each agent treated area with an adjacent blank control area, and the results of which were investigated with the following grading standard method using the overall coverage of the weed population as an indicator.
as §2, §3, §4, §5, §6, §7, §8, §9

[14] = system: Cyperaceae; assay: as above; parameters: key: level scale; higher level = more weed left vs blank control; details: 150 g a.i./ha (penoxsulam control 250 g(a.i.)/h)
Description: as §11, §2, §3, §4, §5, §6, §7, §8, §9

[15] = system: Gramineae; assay: as above; parameters: key: level scale; higher level = more weed left vs blank control; details: 150 g a.i./ha (penoxsulam control 250 g(a.i.)/h)
Description: as §11, §2, §3, §4, §5, §6, §7, §8, §9

[16] = system: Acalypha australis; assay: Field test for weed control in a corn field; details: 150 g a.i./ha, after treatment
Description: (§12) The weed control efficacy field test was performed in a corn field with some of the N-benzylbenzamide-based compounds of general formula I or II with reference to the method of GB/T 17980.42-2000. […] Spray treatments were performed in the stage where 2 leaves to 5 leaves were grown for the corns after the sowing. Representative compounds in the examples were used to prepare emulsifiable concentrates (10%), and spray treatments were performed with the concentrates in water at a dosage of 150 g(a.i.)/ha, and repeated 4 times for each treatment, and the area was 20 m^2. Oil dispersion with 25% of mesotrione was used as a control agent and applied at a dosage of 150 g(a.i.)/h. […] The herbicidal activities of the agents were evaluated on a scale of 1-9 levels according to the symptoms and severity of damage to the test weeds.
as §2, §3, §4, §5, §6, §7, §8, §9

[17] = system: Amaranthus retroflexus; assay: Field test for weed control in a corn field; details: 150 g a.i./ha, 30 days after treatment
Description: as §12, §2, §3, §4, §5, §6, §7, §8, §9

[18] = system: Barnyard grass; assay: Field test for weed control in a corn field; details: 150 g a.i./ha, 30 days after treatment
Description: as §12, §2, §3, §4, §5, §6, §7, §8, §9

[19] = system: Chenopodium album; assay: Field test for weed control in a corn field; details: 150 g a.i./ha, after treatment
Description: as §12, §2, §3, §4, §5, §6, §7, §8, §9

[20] = system: Convolvulus arvensis; assay: Field test for weed control in a corn field; details: 150 g a.i./ha, after treatment
Description: as §12, §2, §3, §4, §5, §6, §7, §8, §9

[21] = system: Digitaria sanguinalis; assay: Field test for weed control in a corn field; details: 150 g a.i./ha, after treatment
Description: as §12, §2, §3, §4, §5, §6, §7, §8, §9

[22] = system: Portulaca oleracea; assay: Field test for weed control in a corn field; details: 150 g a.i./ha, after treatment
Description: as §12, §2, §3, §4, §5, §6, §7, §8, §9

[23] = system: Solanum nigrum; assay: Field test for weed control in a corn field; details: 150 g a.i./ha, 30 days after treatment
Description: as §12, §2, §3, §4, §5, §6, §7, §8, §9

[24] = system: goosegrass; assay: Field test for weed control in a corn field; details: 150 g a.i./ha, after treatment
Description: as §12, §2, §3, §4, §5, §6, §7, §8, §9

[25] = system: green bristlegrass; assay: Field test for weed control in a corn field; details: 150 g a.i./ha, after treatment
Description: as §12, §2, §3, §4, §5, §6, §7, §8, §9

[26] = system: nutgrass flatsedge; assay: Field test for weed control in a corn field; details: 150 g a.i./ha, after treatment
Description: as §12, §2, §3, §4, §5, §6, §7, §8, §9

Compound	Herbicidal Activity Barnyard grass [1]	Herbicidal Activity Piemarker [2]	Herbicidal Activity Green bristlegrass [3]	Herbicidal Activity Amaranthus retroflexus [4]	Herbicidal Activity Digitaria sanguinalis [5]	Herbicidal Activity Humulus scandens [6]	Herbicidal Activity Amaranthus retroflexus [7]	Herbicidal Activity Barnyard grass [8]	Herbicidal Activity Digitaria sanguinalis [9]	Herbicidal Activity Humulus scandens [10]	Herbicidal Activity Piemarker [11]	Herbicidal Activity Green bristlegrass [12]	Herbicidal activity 15 days after treatment Broadleaf weed [13]	Herbicidal activity 30 days after treatment Broadleaf weed [13]	Herbicidal activity 15 days after treatment Cyperaceae [14]	Herbicidal activity 30 days after treatment Cyperaceae [14]	Herbicidal activity 15 days after treatment Gramineae [15]	Herbicidal activity 30 days after treatment Gramineae [15]	Post-emergence weed control effect, Acalypha australis [16]	Post-emergence weed control effect, Amaranthus retroflexus [17]	also measured
COc1ccc(OC)c(C(=O)NCc2cc(F)cc(Cl)c2)c1 [Compound A28]	1	1	1	1	1	2 (equivalent to 0 to 2.5% of the weed in the blank control area)	1	1	1	1	1	1	1	1	2 (equivalent to 0 to 2.5% of the weed in the blank control area)	1	2 (equivalent to 0 to 2.5% of the weed in the blank control area)	1	2 (equivalent to 0 to 2.5% of the weed in the blank control area)	1	Post-emergence weed control effect, Barnyard grass [18]: 1; Post-emergence weed control effect, Chenopodium album [19]: 1; Post-emergence weed control effect, Convolvulus arvensis [20]: 1; Post-emergence weed control effect, Digitaria sanguinalis [21]: 2 (equivalent to 0 to 2.5% of the weed in the blank control area); Post-emergence weed control effect, Portulaca oleracea [22]: 1; Post-emergence weed control effect, Solanum nigrum [23]: 2 (equivalent to 0 to 2.5% of the weed in the blank control area); Post-emergence weed control effect, Goose grass [24]: 2 (equivalent to 0 to 2.5% of the weed in the blank control area); Post-emergence weed control effect, Green bristlegrass [25]: 1; Post-emergence weed control effect, Nutgrass flatsedge [26]: 2 (equivalent to 0 to 2.5% of the weed in the blank control area)
COc1ncccc1C(=O)NCc1cccc(Cl)c1 [Compound A92]	1	1	1	1	1	2 (equivalent to 0 to 2.5% of the weed in the blank control area)	1	1	1	1	1	1	1	1	1	1	2 (equivalent to 0 to 2.5% of the weed in the blank control area)	2 (equivalent to 0 to 2.5% of the weed in the blank control area)	2 (equivalent to 0 to 2.5% of the weed in the blank control area)	1	Post-emergence weed control effect, Barnyard grass [18]: 1; Post-emergence weed control effect, Chenopodium album [19]: 1; Post-emergence weed control effect, Convolvulus arvensis [20]: 1; Post-emergence weed control effect, Digitaria sanguinalis [21]: 2 (equivalent to 0 to 2.5% of the weed in the blank control area); Post-emergence weed control effect, Portulaca oleracea [22]: 1; Post-emergence weed control effect, Solanum nigrum [23]: 2 (equivalent to 0 to 2.5% of the weed in the blank control area); Post-emergence weed control effect, Goose grass [24]: 1; Post-emergence weed control effect, Green bristlegrass [25]: 2 (equivalent to 0 to 2.5% of the weed in the blank control area); Post-emergence weed control effect, Nutgrass flatsedge [26]: 2 (equivalent to 0 to 2.5% of the weed in the blank control area)
COc1ncccc1C(=O)NCc1cc(F)cc(Cl)c1 [Compound A89]	1	1	1	1	2 (equivalent to 0 to 2.5% of the weed in the blank control area)	2 (equivalent to 0 to 2.5% of the weed in the blank control area)	1	1	1	1	1	1	1	1	1	1	1	1	1	1	Post-emergence weed control effect, Barnyard grass [18]: 1; Post-emergence weed control effect, Chenopodium album [19]: 1; Post-emergence weed control effect, Convolvulus arvensis [20]: 1; Post-emergence weed control effect, Digitaria sanguinalis [21]: 2 (equivalent to 0 to 2.5% of the weed in the blank control area); Post-emergence weed control effect, Portulaca oleracea [22]: 1; Post-emergence weed control effect, Solanum nigrum [23]: 2 (equivalent to 0 to 2.5% of the weed in the blank control area); Post-emergence weed control effect, Goose grass [24]: 2 (equivalent to 0 to 2.5% of the weed in the blank control area); Post-emergence weed control effect, Green bristlegrass [25]: 1; Post-emergence weed control effect, Nutgrass flatsedge [26]: 2 (equivalent to 0 to 2.5% of the weed in the blank control area)
